Reference: publication PMC6260593, “Kaempferol and Kaempferol Rhamnosides with Depigmenting and Anti-Inflammatory Properties” (Molecules, 2011)
Like-named read-outs stand apart in the source and are kept apart here.

Tests used:
B16 melanoma cells [1] = assay: Depigmenting activity (melanin content) in B16 melanoma cells; assay type: cell-based; settings: for IC50: Mus musculus, 120 h, 5 days, melanin content, read-out: Inhibitory activity [IC50] Depigmentation
Method: The cell pellets were then dissolved in 1 N NaOH in 10% DMSO (500 μL) at 80 °C for 1 h. The relative melanin content was determined by measuring the absorbance at 475 nm with an ELISA reader (Molecular Devices Corp., Menlo Park, CA, USA). A standard synthetic melanin curve (0–500 μg⁄mL) was prepared in triplicate for each experiment.

[2] = Cytotoxicity towards B16 melanoma cells; assay type: cell-based; settings: mouse, read-out: Inhibitory activity [IC50] Cytotoxicity
[3] = test system: NO production in LPS-activated RAW264.7 cells; assay: Inhibition of NO production induced by LPS in RAW264.7 cells (Griess); assay type: cell-based; settings: Mus musculus, LPS 1 μg/mL, 24 h, read-out: Inhibitory activity [IC50] NO
Method: The nitrite in the culture supernatants was measured by adding Griess reagent (100 μL, 1% sulfanilamide and 0.1% N-[1-naphthyl]-ethylenediamine dihydrochloride in 5% phosphoric acid) to samples of the medium (100 μL) for 10 min at room temperature. The OD at 570 nm (OD570) was measured using a Spectramax 250 microplate reader (Molecular Devices). A standard curve of NO was made with sodium nitrite.

in vitro = settings: mouse
Method: (§1) The cytotoxic effect of kojyl thioether derivatives was then evaluated by a conventional MTT assay. At 3 h prior to culture termination, MTT solution (10 μL, 5 mg/mL in a phosphate buffered-saline, pH 7.4) was added and the cells were continuously cultured until termination. The incubation was halted by the addition of 15% sodium dodecyl sulfate into each well, solubilizing formazan. The absorbance at 570 nm (OD570–630) was measured by a Spectramax 250 microplate reader.

[4] = test system: NF-κB-mediated luciferase activity; assay: NF-κB-mediated luciferase assay in HEK293 cells; assay type: cell-based; settings: HEK293 cells transfected with NF-κB-Luc, PMA 0.1 μM, 24 h, read-out: Inhibitory activity [IC50] NF-κB-mediated luciferase activity
Method: HEK293 cells (1 × 10^6 cells/mL) were transfected with plasmids containing NF-κB-Luc, (1 μg/mL each) as well as β-galactosidase (0.5 μg/mL) using the PEI method in a 12-well plate for 48 h, and they were treated with testing compounds in the presence or absence of PMA (0.1 μM) for 24 h. Luciferase assay was performed using the Luciferse Assay System (Promega).

Tyrosinase = test system: Tyrosinase; parameters: method as in PMID 21050756; settings: previously reported, cited from earlier work; for IC50: means of three experiments, read-out: Inhibitory activity [IC50] Tyrosinase
B16 melanoma cells [5] = assay: Cytotoxicity towards B16 melanoma cells; assay type: cell-based
RAW264.7 cells = assay: Cytotoxicity in RAW264.7 cells (MTT)
Method: as §1

iNOS mRNA = assay: Expression of iNOS mRNA in LPS-activated RAW 264.7 cells (RT-PCR); assay type: cell-based; settings: 25–100 μM, LPS 1 μg/mL for 6 h
Method: RAW 264.7 cells were treated with different concentrations of compound 1 and 2 (25–100 μM) and then stimulated with LPS (1 μg/mL) for 6 h.
The total RNA from the LPS treated-RAW264.7 cells was prepared by adding TRIzol Reagent (Gibco BRL), as per the manufacturer’s instructions. Real-time PCR reactions were conducted using MuLV reverse transcriptase. The primers (Bioneer, Daejeon, Korea) were used as previously reported.

C[C@@H]1O[C@@H](Oc2c(-c3ccc(O)cc3)oc3cc(O)cc(O)c3c2=O)[C@H](O)[C@H](O)[C@H]1O [Afzelin (3), kaempferol 3-O-α-L-rhamnopyranoside]
IC50 (B16 melanoma cells [1]): > 100 µM
IC50 [2]: > 100 µM
IC50 [3]: > 100 µM
IC50 at 24 h (in vitro): > 100 µM
IC50 ([4]; Homo sapiens): > 100 µM
Tyrosinase inhibitory activity (in words) (Tyrosinase): showed no inhibitory activities

OC[C@H]1O[C@@H](Oc2ccc(O)cc2)[C@H](O)[C@@H](O)[C@@H]1O [Arbutin, reference compound]
IC50 (B16 melanoma cells [1]): 171 ± 2.1 µM
IC50 [2]: > 200 µM

Cc1ccc(S(=O)(=O)/C=C/C#N)cc1 [BAY11-7082, reference compound]
IC50 [4]: 11.5 ± 0.1 µM

C[C@@H]1O[C@@H](Oc2cc(O)c3c(=O)c(O[C@@H]4O[C@@H](C)[C@H](O)[C@@H](O)[C@H]4O)c(-c4ccc(O)cc4)oc3c2)[C@H](O)[C@H](O)[C@H]1O [Kaempferitrin (4), kaempferol-3,7-O-α-dirhamnoside]
IC50 (B16 melanoma cells [1]): > 100 µM
IC50 [2]: > 100 µM
IC50 [3]: > 100 µM
IC50 at 24 h (in vitro): > 100 µM
IC50 ([4]; Homo sapiens): > 100 µM
Tyrosinase inhibitory activity (in words) (Tyrosinase): showed no inhibitory activities

O=c1c(O)c(-c2ccc(O)cc2)oc2cc(O)cc(O)c12 [Kaempferol (1), kaempferol]
Depigmenting inhibitory activity (in words) (B16 melanoma cells [1]): showed inhibitory activity
IC50 (B16 melanoma cells [1]): 37.66 ± 0.1 µM
IC50 [2]: 25.6 ± 0.9 µM
Cytotoxicity towards B16 melanoma cells (in words) (B16 melanoma cells [5]): showed cytotoxicity towards B16 melanoma cells
IC50 [3]: 15.4 ± 0.2 µM
IC50 at 24 h (in vitro; RAW264.7 cells): > 100 µM
Cytotoxicity in the NO assay cells (in words) (RAW264.7 cells; RAW264.7 cells): without cytotoxicity
IC50 ([4]; Homo sapiens): 90.3 ± 5.1 µM
Expression of iNOS mRNA (in words) (iNOS mRNA): suppressed the expression of iNOS mRNA in a dose-dependent manner
IC50 (Tyrosinase): 171.4 ± 0.9 µM
Tyrosinase inhibitory activity (in words) (Tyrosinase): showed tyrosinase inhibitory activities

CC(=O)CCCCn1c(=O)c2c(ncn2C)n(C)c1=O [Pentoxifylline, pentoxifylline, reference compound]
IC50 [3]: 446 ± 1.1 µM
IC50 at 24 h (in vitro; RAW264.7 cells): > 1000 µM

C[C@@H]1O[C@@H](Oc2cc(O)c3c(=O)c(O)c(-c4ccc(O)cc4)oc3c2)[C@H](O)[C@H](O)[C@H]1O [α-Rhamnoisorobin (2), kaempferol 7-O-α-L-rhamnopyranoside]
Depigmenting inhibitory activity (in words) (B16 melanoma cells [1]): showed inhibitory activity
IC50 (B16 melanoma cells [1]): 39.5 ± 0.4 µM
IC50 [2]: 22.9 ± 1.3 µM
Cytotoxicity towards B16 melanoma cells (in words) (B16 melanoma cells [5]): showed cytotoxicity towards B16 melanoma cells
IC50 [3]: 37.7 ± 2 µM
IC50 at 24 h (in vitro): > 100 µM
Cytotoxicity in the NO assay cells (in words) (RAW264.7 cells): without cytotoxicity
IC50 ([4]; Homo sapiens): 36.2 ± 3.3 µM
Expression of iNOS mRNA (in words) (iNOS mRNA): suppressed the expression of iNOS mRNA in a dose-dependent manner
IC50 (Tyrosinase): > 400 µM
Tyrosinase inhibitory activity (in words) (Tyrosinase): showed tyrosinase inhibitory activities
